# According to US5377676A, “Method for determining the biodistribution of substances using fluorescence spectroscopy” (Cedars-Sinai Medical Center, priority 1993, dated 1995):
# What was measured:
# [1] = BPD-MA biodistribution by LIFS, Study #1; type: in vivo, male Lobund-Wistar rats; details: for I(690 nm)/I(540 nm), kidney / I(690 nm)/I(540 nm), large bowel / I(690 nm)/I(540 nm), liver / I(690 nm)/I(540 nm), mesenteric lymph nodes (MCLN) / I(690 nm)/I(540 nm), metast. L. node / I(690 nm)/I(540 nm), muscle / I(690 nm)/I(540 nm), non-met L. node / I(690 nm)/I(540 nm), skin / I(690 nm)/I(540 nm), small bowel: mean ± SD
# Description: (§1) The experimental arrangement used to measure the fluorescence spectra during abdominal exploration included a Helium-cadmium laser (Omnichrome, Chino, Calif.) operating at 442 nm as an excitation source. A 400 micron core diameter fiber was directed at the tissue in contact mode producing a low power (17 mW) illumination. Using the same fiber, reflected and emitted light was returned to the input of a SPEX 500 spectrometer (1422 G EG&G).
# (§2) Laser output was reflected at a right angle by a dichroic mirror (HR/442 nm-H7>500 nm, CVI, New Mexico) and was focused at the input of a 400 micron core diameter fiberoptic probe. The excitation output of the laser at the distal end of the fiber was 17 mW. Fluorescence was collected using the same fiber and was transmitted through the dichroic beamsplitter and guided via a fiber bundle to a 0.5 spectrograph (100 g/mm diffraction grating with a split width of 50 microns). The light was then imaged at the modified output port. A 1024 element linear diode array detector (EG&G 1422G) was attached to the exit port, and the signal was directed to a multichannel intensifier. A longpass glass filter (Schott GG475) was used to exclude the excitation light from the detector and conversions were made by an analog to digital converter and automatically stored by a computer. […] Background spectra were recorded before excitation and subtracted from the resulting data. The detection system, including the detector attenuation filter, lenses and spectrograph, was not altered or corrected for a uniform spectral response.
# (§3) Spectra from the surfaces of tumor (T), skin (S), muscle (M), liver (L), kidney (K), spleen (Sp), stomach (St), small bowel (SB) and large bowel (LB) were acquired and analyzed by the OMA. […] (FIG. 1 is a schematic representation of this experimental arrangement.) A series of spectra for Photofrin and BPD-MA were recorded from photosensitized animals. (FIGS. 2 and 3). The fluorescence intensities at 540 nm (auto-fluorescence) and 630 nm (Photofrin) or 690 nm (BPD-MA) were simultaneously monitored at three sites for each organ. By using the ratio of these intensities, (I630 nm /I540 nm) or (I690 nm /540 nm), a relative value could be assigned to each area studied. In addition, this intensity ratio eliminated any geometric factor (fiber position) influence in the calibration, as well as calibration errors. The corresponding intensity ratios were used as an index for drug presence in the various tissues.
# (§4) The fluorescence emitted from cancerous and normal tissues of male Lobund-Wistar rats was investigated (Lobund Laboratory, Notre Dame University, Id.). All tumors were subcutaneously implanted by inoculating 10^5 viable cells of Pollard rat prostatic adenocarcinoma (PA-III) into the right flank of each animal. This tumor model was selected because it is known to metastasize uniformly and spontaneously from extravascular sites only through ipsilateral lymphatic channels. Because of this tumor's unique, predictable spread, the contralateral side of the animal could be used as a control. In addition, cancer detection is facilitated with this model because rats with PA-III cells survive beyond forty days after implantation without evidence of physical impairment.
# (§5) Two separate experiments were performed to assess the biodistribution of BPD-MA. The first study involved 21 animals and two doses of BPD-MA, 0.25 mg/kg and 0.50 mg/kg, to determine the concentration effect of BPD-MA in various tissues. The second study involved 81 animals and 0.75 mg/kg of BPD-MA to determine the biodistribution of BPD-MA and the sensitivity and specificity of LIFS biodistribution measurements.
# BPD-MA (QLT Phototherapeutics, Inc., Vancouver, Canada) was administered to 21 animals intravenously. The animals were divided into three groups of seven animals each and injected with two different doses of BPD-MA, 0.25 mg/kg (n=7) and 0.50 mg/kg (n=7) 4-6 hours prior to surgical exploration. Seven animals served as a control. […]
# [2] = BPD-MA biodistribution by LIFS, Study #1; set-up: species or system male Lobund-Wistar rats; details: rat, in vivo, iv, 0.5 mg/kg
# [3] = set-up: species or system male Lobund-Wistar rats; details: rat, in vivo, iv, 0.75 mg/kg
# Description: as §1, §2, §3, §4, §5
# BPD-MA (QLT Phototherapeutics, Inc., Vancouver, Canada) was administered intravenously in a dose of 0.75 mg/kg to 81 animals 4 hours prior to surgical exploration.
# As in Study #1, the animals were anesthetized with Ketamine 40 mg/kg and Xylazine 5.0 mg/kg intraperitoneally, and the abdomens opened through a midline incision. […]
# [4] = in vivo; cited from earlier work
# [5] = after excitation by blue light; cited from earlier work
# [6] = Absorption / fluorescence of the photosensitizer; type: physicochemical; details: 442 nm excitation
# Description: as §1
# Laser output was reflected at a right angle by a dichroic mirror (HR/442 nm-H7>500 nm, CVI, New Mexico) and was focused at the input of a 400 micron core diameter fiberoptic probe. The excitation output of the laser at the distal end of the fiber was 17 mW. Fluorescence was collected using the same fiber and was transmitted through the dichroic beamsplitter and guided via a fiber bundle to a 0.5 spectrograph (100 g/mm diffraction grating with a split width of 50 microns). […] Background spectra were recorded before excitation and subtracted from the resulting data. […]
# Spectra from the surfaces of tumor (T), skin (S), muscle (M), liver (L), kidney (K), spleen (Sp), stomach (St), small bowel (SB) and large bowel (LB) were acquired and analyzed by the OMA. […] (FIG. 1 is a schematic representation of this experimental arrangement.) A series of spectra for Photofrin and BPD-MA were recorded from photosensitized animals. […]
# [7] = Photofrin biodistribution by laser induced fluorescence spectroscopy (LIFS); type: in vivo, male Lobund-Wistar rats
# Description: as §1, §2, §3, §4
# After forty-two days of observation, Photofrin (QLT Phototherapeutics, Inc., Vancouver, Canada) was administered intraperitoneally to forty-one animals 24-48 hours prior to surgical exploration in doses ranging from 0.25-7.5 mg/kg. Six animals were injected 24 hours prior to surgical exploration with 0.75 mg/kg of Photofrin. Thirty animals were injected with six different concentrations of Photofrin 48 hours prior to surgical exploration (7.5 mg/kg (n=5), 2.5 mg/kg (n=4), 1.5 mg/kg (n=3), 0.75 mg/kg (n=11), 0.50 mg/kg (n=4), and 0.25 mg/kg (n=3)). Five animals which had not been inoculated with PA-III were injected with 0.75 mg/kg 48 hours prior to surgical exploration, and served as a control. […]
# [8] = 1.5 mg/kg i.p., 48 h, PA-III rats, mean ± SD
# [9] = 2.5 mg/kg i.p., 48 h, PA-III rats, mean ± SD
# [10] = 7.5 mg/kg i.p., 48 h, PA-III rats, mean ± SD
substance,measurement,setting,value
Benzoporphyrin derivative monoacid-A [BPD-MA],"I(690 nm)/I(540 nm), kidney","[1]; 4 Hours, 0.25 mg/kg i.v.",1.04 ± 0.40
same,"I(690 nm)/I(540 nm), large bowel","[1]; 4 Hours, 0.25 mg/kg i.v.",1.27 ± 0.30
same,"I(690 nm)/I(540 nm), liver","[1]; 4 Hours, 0.25 mg/kg i.v.",7.83 ± 3.69
same,"I(690 nm)/I(540 nm), mesenteric lymph nodes (MCLN)","[1]; 4 Hours, 0.25 mg/kg i.v.",1.40 ± 0.27
same,"I(690 nm)/I(540 nm), metast. L. node","[1]; 4 Hours, 0.25 mg/kg i.v.",3.19 ± 2.31
same,"I(690 nm)/I(540 nm), muscle","[1]; 4 Hours, 0.25 mg/kg i.v.",1.73 ± 0.47
same,"I(690 nm)/I(540 nm), non-met L. node","[1]; 4 Hours, 0.25 mg/kg i.v.",3.55 ± 1.77
same,"I(690 nm)/I(540 nm), skin","[1]; 4 Hours, 0.25 mg/kg i.v.",0.31 ± 0.12
same,"I(690 nm)/I(540 nm), small bowel","[1]; 4 Hours, 0.25 mg/kg i.v.",7.63 ± 2.73
same,"I(690 nm)/I(540 nm), kidney","[1]; 4 Hours, 0.50 mg/kg i.v.",1.57 ± 0.32
same,"I(690 nm)/I(540 nm), large bowel","[1]; 4 Hours, 0.50 mg/kg i.v.",1.59 ± 0.45
same,"I(690 nm)/I(540 nm), liver","[1]; 4 Hours, 0.50 mg/kg i.v.",15.74 ± 9.25
same,"I(690 nm)/I(540 nm), mesenteric lymph nodes (MCLN)","[1]; 4 Hours, 0.50 mg/kg i.v.",3.12 ± 0.99
same,"I(690 nm)/I(540 nm), metast. L. node","[1]; 4 Hours, 0.50 mg/kg i.v.",6.73 ± 2.39
same,"I(690 nm)/I(540 nm), muscle","[1]; 4 Hours, 0.50 mg/kg i.v.",1.62 ± 0.82
same,"I(690 nm)/I(540 nm), non-met L. node","[1]; 4 Hours, 0.50 mg/kg i.v.",2.65 ± 0.62
same,"I(690 nm)/I(540 nm), skin","[1]; 4 Hours, 0.50 mg/kg i.v.",0.50 ± 0.17
same,"I(690 nm)/I(540 nm), small bowel","[1]; 4 Hours, 0.50 mg/kg i.v.",9.91 ± 5.08
same,"I(690 nm)/I(540 nm), kidney","[1]; 6 Hours, 0.25 mg/kg i.v.",0.78 ± 0.19
same,"I(690 nm)/I(540 nm), large bowel","[1]; 6 Hours, 0.25 mg/kg i.v.",2.37 ± 1.48
same,"I(690 nm)/I(540 nm), liver","[1]; 6 Hours, 0.25 mg/kg i.v.",5.20 ± 2.38
same,"I(690 nm)/I(540 nm), mesenteric lymph nodes (MCLN)","[1]; 6 Hours, 0.25 mg/kg i.v.",1.43 ± 0.67
same,"I(690 nm)/I(540 nm), metast. L. node","[1]; 6 Hours, 0.25 mg/kg i.v.",3.70 ± 2.82
same,"I(690 nm)/I(540 nm), muscle","[1]; 6 Hours, 0.25 mg/kg i.v.",0.78 ± 0.26
same,"I(690 nm)/I(540 nm), non-met L. node","[1]; 6 Hours, 0.25 mg/kg i.v.",2.77 ± 2.25
same,"I(690 nm)/I(540 nm), skin","[1]; 6 Hours, 0.25 mg/kg i.v.",0.30 ± 0.15
same,"I(690 nm)/I(540 nm), small bowel","[1]; 6 Hours, 0.25 mg/kg i.v.",4.98 ± 2.83
same,BPD-MA retention in organs with time,"[1]; rat, in vivo, iv",BPD-MA retention in all organs decreased with time
same,"Fluorescence intensity ratio (I630 nm/I540 nm), non-metastatic tissue","[1]; rat, in vivo, iv, 0.5 mg/kg",2.65 ± 0.62
same,"I(690 nm)/I(540 nm), spleen","[1]; rat, in vivo, iv, 0.5 mg/kg",1.57 ± 0.31
same,"I(690 nm)/I(540 nm), stomach","[1]; rat, in vivo, iv, 0.5 mg/kg",2.95 ± 1.10
same,"I(690 nm)/I(540 nm), tumor","[1]; rat, in vivo, iv, 0.5 mg/kg",3.44 ± 1.14
same,"Fluorescence intensity ratio (I630 nm/I540 nm), metastatic tissue",[2],6.73 ± 2.39
same,"Fluorescence intensity ratio mean, Left Iliac LN (LILN)",[3],5.22
same,"Fluorescence intensity ratio mean, Mesenteric I LN (MC I)",[3],2.45
same,"Fluorescence intensity ratio mean, Mesenteric II LN (MC II)",[3],2.37
same,"Fluorescence intensity ratio mean, Right Iliac LN (RILN)",[3],5.86
same,"Fluorescence intensity ratio mean, Right Inguinal LN (RIN)",[3],4.72
same,"Fluorescence intensity ratio mean, Right Para-Aortic LN (RPAR)",[3],7.40
same,"Fluorescence intensity ratio mean, Right Sub-Renalis LN (RSBR)",[3],4.50
same,"Fluorescence intensity ratio mean, Right Supra-Renalis LN (RSPR)",[3],4.26
same,"Fluorescence intensity ratio mean, inflammatory LN",[3],3.67
same,"Fluorescence intensity ratio mean, metastatic LN",[3],6.26
same,"Fluorescence intensity ratio mean, normal LN",[3],3.06
same,Photosensitivity of the skin,[4],dramatically decreased photosensitivity of the skin
same,Characteristic red fluorescence peak,[5],approximately 690 nm
Photofrin,Characteristic fluorescence peak,[6],~ 630 nm
same,"Fluorescence intensity ratio (I630 nm/I540 nm), skin",[7]; [8],0.23 ± 0.06
same,"Fluorescence intensity ratio (I630 nm/I540 nm), small bowel",[7]; [8],0.56 ± 0.08
same,"Fluorescence intensity ratio (I630 nm/I540 nm), spleen",[7]; [8],1.25 ± 0.35
same,"Fluorescence intensity ratio (I630 nm/I540 nm), stomach",[7]; [8],0.92 ± 0.12
same,"Fluorescence intensity ratio (I630 nm/I540 nm), tumor",[7]; [8],0.36 ± 0.01
same,"Fluorescence intensity ratio (I630 nm/I540 nm), non metas L. node",[7]; [9],1.75 ± 1.06
same,"Fluorescence intensity ratio (I630 nm/I540 nm), skin",[7]; [9],0.22 ± 0.04
same,"Fluorescence intensity ratio (I630 nm/I540 nm), small bowel",[7]; [9],0.57 ± 0.30
same,"Fluorescence intensity ratio (I630 nm/I540 nm), spleen",[7]; [9],0.72 ± 0.25
same,"Fluorescence intensity ratio (I630 nm/I540 nm), stomach",[7]; [9],0.26 ± 0.01
same,"Fluorescence intensity ratio (I630 nm/I540 nm), tumor",[7]; [9],0.70 ± 0.43
same,"Fluorescence intensity ratio (I630 nm/I540 nm), skin",[7]; [10],0.25 ± 0.04
same,"Fluorescence intensity ratio (I630 nm/I540 nm), small bowel",[7]; [10],0.96 ± 0.33
same,"Fluorescence intensity ratio (I630 nm/I540 nm), spleen",[7]; [10],1.56 ± 0.68
same,"Fluorescence intensity ratio (I630 nm/I540 nm), stomach",[7]; [10],0.62 ± 0.24
same,"Fluorescence intensity ratio (I630 nm/I540 nm), tumor",[7]; [10],2.45 ± 1.00
same,Dose at which metastatic and non-metastatic lymph nodes are distinguished (selectivity),"[7]; rat, in vivo, 2880 min",higher than 0.25 mg/kg
